Patent publication US20230277698A1, “SILICON-CONTAINING LIGAND COMPOUNDS” (Technische Universität München, priority 2020, published 2023)

Key:
LNCaP cells = experiment: Internalization studies on LNCaP cells; type: cell-based; conditions: 177Lu-labelled, c=1.0 nM, 1 hour, 37 °C; % of reference ligand ([125I]I-BA)KuE (c=0.2 nM); corrected for non-specific binding (PMPA); mean±SD, n=3-6
Description: PSMA-positive LNCAP cells (300265; Cell Lines Service, Eppelheim, Germany) were cultivated in Dulbecco modified Eagle medium/Nutrition Mixture F-12 with Glutamax (1:1) (DMEM-F12, Biochrom, Berlin, Germany) supplemented with fetal bovine serum (10%, FBS Zellkultur, Berlin, Germany) and kept at 37° C. in a humidified CO2 atmosphere (5%). A mixture of trypsin and EDTA (0.05%, 0.02%) in PBS (Biochrom) was used in order to harvest cells. Cells were counted with a Neubauer hemocytometer (Paul Marienfeld, Lauda-Königshofen, Germany).
For internalization studies, LNCaP cells were harvested 24±2 hours before the experiment and seeded in poly-L-lysine coated 24-well plates (1.25×10^5 cells in 1 mL/well, Greiner Bio-One, Kremsmünster, Austria). After removal of the culture medium, the cells were washed once with 500 μL DMEM-F12 (5% BSA) and left to equilibrate for at least 15 min at 37° C. in 200 μL DMEM-F12 (5% BSA). Each well was treated with either 25 μL of either DMEM-F12 (5% BSA, control) or 25 μL of a 100 μM PMPA (2-(Phosphonomethyl)-pentandioic acid, Tocris Bioscience, Bristol, UK) solution in PBS, for blockade. Next, 25 μL of the radioactive-labelled PSMA inhibitor (10.0 nM in PBS) was added and the cells were incubated at 37° C. for 60 min. The experiment was terminated by placing the 24-well plate on ice for 3 min and consecutive removal of the medium. Each well was carefully washed with 250 μL of ice-cold HBSS. Both fractions from the first steps, representing the amount of free radioligand, were combined. Removal of surface bound activity was accomplished by incubation of the cells with 250 μL of ice-cold PMPA (10 μM in PBS) solution for 5 min and rinsed again with another 250 μL of ice-cold PBS. The internalized activity was determined by incubation of the cells in 250 μL 1 M aqueous NaOH for at least 10 min. The obtained fractions were combined with those of the subsequent wash step with 250 μL 1 M aqueous NaOH. Each experiment (control and blockade) was performed in triplicate. Free, surface bound and internalized activity was quantified in a γ-counter. All internalization studies were accompanied by external reference studies, using ([^125I]l-BA)KuE (c=0.2 nM), which were performed analogously. Data were corrected for non-specific binding and normalized to the specific-internalization observed for the radioiodinated reference compound.
Data is corrected for non-specific binding (10 μmol PMPA) and expressed as mean±SD (n=3-6): […]

[1] = tested on: LNCaP tumor-bearing CB17-SCID mice; experiment: Biodistribution studies 24 h p.i.; type: in vivo; conditions: 177Lu-labelled, mean±SD, n=4-5
Description: All animal experiments were conducted in accordance with general animal welfare regulations in Germany (German animal protection act, as amended on 18 May 2018, Art. 141 G v. 29.3.2017|626, approval no. 55.2-1-54-2532-71-13) and the institutional guidelines for the care and use of animals. To establish tumor xenografts, LNCaP cells (approx. 10^7 cells) were suspended in 200 μL of a 1:1 mixture (v/v) of DMEM F-12 and Matrigel (BD Biosciences, Germany), and inoculated subcutaneously onto the right shoulder of 6-8 weeks old CB17-SCID mice (Charles River, Sulzfeld, Germany). Mice were used for experiments when tumors had grown to a diameter of 5-10 mm (3-6 weeks after inoculation).
Approximately 5-10 MBq (0.1-0.2 nmol) of the radioactive-labelled PSMA inhibitors were injected into the tail vein of LNCaP tumor-bearing male CB-17 SCID mice and sacrificed after 24 h post injection. Selected organs were removed, weighted and measured in a γ-counter.
FIG. 10 and the following table show the biodistribution data 24 h p.i. of ^177Lu-labeled compounds in LNCaP tumor-bearing CB17-SCID mice. Data are expressed as mean±SD (n=4-5).

[2] = molecular target: human serum albumin (HSA) (Homo sapiens, UniProt P02768); experiment: HSA binding by radio inversed affinity chromatography (RIAC); type: in vitro ADME; conditions: 177Lu-labelled; Superdex 75 Increase 10/300 GL, 700 μM HSA in PBS, 0.8 mL/min
Description: A gel filtration column Superdex 75 Increase 10/300 GL (GE Healthcare, Uppsala, Sweden) was beforehand calibrated following the producer's recommendations with a commercially available gel filtration calibration kit (GE Healthcare, Buckinghamshire, UK) comprising conalbumin (MW: 75 kDa), ovalbumin (44 kDa), carbonic anhydrase (29 kDa), ribonuclease A (13.7 kDa) and aprotinin (6.5 kDa) as reference proteins of known molecular weight. RIAC experiments were conducted using a constant flow rate of 0.8 mL/min at rt. A solution of HSA in PBS at physiological concentration (700 μM) was used as the mobile phase. PSMA ligands were labelled as described with molar activities of 10-20 GBq/μmol. Probes of 1.0 MBq of the radioligand were injected directly from the labelling solution. HSA binding was expressed as an apparent molecular weight MW calculated from the retention time of the radioligand using the determined calibration curve.
The following table summarizes the underlying data. MW: molecular weight. tR: experimentally determined retention time. V: elution volume. Kav: partition coefficient.
RIAC, in an inversed way, comprises ligand samples (radiolabeled PSMA ligands) and a protein (HSA) containing mobile phase. Ligand-specific retention is caused by interaction of the ligand probe and HSA in the mobile phase. Unbound species, due to a molecular weight beneath the molecular cut off of the gel filtration column, are maximally retained while bound species are eluted in accordance to the higher molecular weight of the ligand-HSA-complex (MWHSA: 66.47 kDa). Experiments show a single radiopeak indicating a dynamic process of formation and dissociation of the ligand-HSA-complex throughout the passage through the column bed. Accordingly, the absolute retention time is the result of the ligand's mean time of abidance at HSA which is directly defined by the ligand's binding kinetics and affinity toward HSA. For evaluation, experimentally determined retention times tR are first converted into elution volumes Ve by multiplying with the flow rate and thereafter converted into partition coefficients Kav following the equation
where V0 is the column void volume (8.027 mL) and Vc is the geometric column volume (24 mL). Using the equation given by the trend line plot of the column calibration
the apparent molecular weight MW is calculated as
FIG. 7 and the table below show the results HSA-binding of lutetium-complexed PSMA-ligands and reference compounds determined by RIAC on a Superdex 75 Increase 10/300 GL column 700 μM HSA in PBS as solvent using a constant flow rate of 0.8 mL/min (plotted data, extracted from FIG. 8).
FIG. 8 illustrates the determination of HSA binding via radio inverse affinity chromatography (RIAC). Correlation of apparent molecular weight (MW) in Dalton (Da) and retention time of ^177Lu-labeled samples, determined on a Superdex 75 Increase 10/300 GL with 700 μM HSA in PBS as solvent using a constant flow rate of 0.8 mL/min.

human serum albumin (HSA), sequence (P02768 25-609): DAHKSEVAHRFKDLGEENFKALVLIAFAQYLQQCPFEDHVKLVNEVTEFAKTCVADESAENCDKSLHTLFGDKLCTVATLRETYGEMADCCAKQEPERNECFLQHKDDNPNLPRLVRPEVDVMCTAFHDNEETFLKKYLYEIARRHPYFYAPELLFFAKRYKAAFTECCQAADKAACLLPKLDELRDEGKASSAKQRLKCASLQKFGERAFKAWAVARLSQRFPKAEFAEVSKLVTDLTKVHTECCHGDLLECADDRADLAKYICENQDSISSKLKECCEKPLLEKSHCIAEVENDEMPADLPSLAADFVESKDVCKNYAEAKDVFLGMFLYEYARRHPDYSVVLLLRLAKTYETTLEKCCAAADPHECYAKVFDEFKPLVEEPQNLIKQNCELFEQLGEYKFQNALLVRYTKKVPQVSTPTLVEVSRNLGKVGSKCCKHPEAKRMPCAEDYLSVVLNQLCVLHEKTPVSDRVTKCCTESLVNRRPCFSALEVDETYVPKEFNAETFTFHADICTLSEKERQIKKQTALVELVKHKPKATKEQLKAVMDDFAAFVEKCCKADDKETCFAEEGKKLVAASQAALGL

## O=C(O)CC[C@H](NC(=O)N[C@@H](CCCCNC(=O)CCCCCCC(=O)NCCCC[C@@H](NC(=O)[C@@H](Cc1ccccc1)NC(=O)[C@@H](Cc1ccc(O)c(I)c1)NC(=O)CCC(C(=O)O)N1CCN(CC(=O)O)CCN(CC(=O)O)CCN(CC(=O)O)CC1)C(=O)O)C(=O)O)C(=O)O (stereo partly drawn) [PSMA I&T, reference compound]
LNCaP cells
  Internalization (% IBA): 76 ± 2 % IBA
[1]; LNCaP xenograft
  biodistribution: tumor: 4.1 ± 1.1 % ID/g
[1]; i.v. tail vein
  biodistribution: blood: 0.012 ± 0.01 % ID/g
[1]
  biodistribution: adrenals: 1.06 ± 0.24 % ID/g
  biodistribution: bone: 0.01 ± 0.01 % ID/g
  biodistribution: heart: 0.05 ± 0.03 % ID/g
  biodistribution: intestine: 0.12 ± 0.06 % ID/g
  biodistribution: kidneys: 34.7 ± 17.2 % ID/g
  biodistribution: liver: 0.05 ± 0.01 % ID/g
  biodistribution: lung: 0.16 ± 0.03 % ID/g
  biodistribution: muscle: 0.01 ± 0.01 % ID/g
  biodistribution: pancreas: 0.05 ± 0.02 % ID/g
  biodistribution: spleen: 1.94 ± 1.01 % ID/g
  biodistribution: stomach: 0.05 ± 0.02 % ID/g
[2]
  HSA-binding RIAC (apparent molecular weight): 5.3 kDa
